According to US20070196442A1, “Method for improving the oral administration of alpha-lipoic acid” (priority 2006, published 2007):

Legend:
[1] = background / U.S. Pat. No. 3,562,273; cited from earlier work
pH of aqueous solution = assay type: physicochemical; details: noted by the inventors
[2] = double-blind, randomized comparative taste-test of oral alpha-lipoic acid solutions (throat irritation, overall liking); assay type: in vivo; details: of seventeen subjects

| pH of the salt (pH of aqueous solution) | SMILES | pH in a 0.1M aqueous solution [1] | number of subjects ranking the sample as the most irritating of the three samples [2] |
| --- | --- | --- | --- |
| – | NC(CO)(CO)CO [trometamol, 2-amino-2-(hydroxymethyl)propane-1,3-diol] | 10.4 | – |
| 6.5 to 7.5 | NC(CO)(CO)CO.O=C(O)CCCCC1CCSS1 (stereo not shown) [TR-ALA, tris(hydroxymethyl) amino methane thioctate] | 6.5 | – |
| – | O=C(O)CCCC[C@@H]1CCSS1 [ALA, 5-[(3R)-dithiolan-3-yl]pentanoic acid] | – | fourteen |
